These results are taken from patent US11932638B2, “Ion channel inhibitor compounds for cancer treatment” (Centre National de la Recherche Scientifique, priority 2017, dated 2024).

The target in data set [1] is T1, SK3 channel (Rattus norvegicus, UniProt P70605).
T1 construct: expressed in transfected cells
Nature of the data set: Conventional manual patch clamp on HEK-rSK3 cells, SK3 channel activity. It counts as cell-based. From the text:
(§1) Cell Lines Used to Screen the Molecules on the Activity of SKCa Channels (Small Conductance Calcium-Activated Potassium Channel; SK1, SK2 and SK3) and IKCa Channels (Intermediate Conductance Calcium-Activated Potassium Channel, SK4)
(§2) Use was made of the HEK 293 T line, a foetal kidney line which was immortalised with the T antigen of the […] simian virus. This cell line is widely used on account of the ease with which these cells can be transfected with plasmids or other transfection vectors. Four stable lines were used for patch clamp experiments: HEK-hSK1, HEK-rSK2, HEK-rSK3 and HEK-IKCa/SK4 which respectively overexpress the SK1, SK2, SK3 and SK4 channels. The lines were obtained via stable transduction (Girault et al., Current Cancer Drug Targets, 2011, 11, 1111-25) and are those already routinely used to assay SK3 modulators (Potier et al. Br J Pharmacol. 2011 January; 162(2):464-79; Sevrain et al., Med. Chem. Commun., 2012, 3, 1471-1478; Sevrain et al., Organic & Biomolecular Chemistry, 2013 Jul. 21; 11(27):4479-87, Berthe W, Sevrain C M, Chantôme A, Bouchet A M, Gueguinou M, Fourbon Y, Potier-Cartereau M, Haelters J P, Couthon-Gourvès H, Vandier C, Jaffrès P A. ChemMedChem. 2016 Jul. 19; 11(14):1531-9). […] These lines therefore enabled us without difficulty to examine the effect of the molecules on the SK3 channel, and also the selectivity thereof by means of the patch clamp technique. The inhibitory activity of the non-toxic molecules was assayed on the activity of the SK3 channel. The selectivity of the molecules was determined by patch clamp on HEK cell models stably expressing the SK3 channel but also the SK1, SK2, SK3 or IKCa/SK4 channels.
Electrophysiology/Patch-Clamp
(§3) Patch clamp is a technique allowing measurement of the activity of ion channels by recording macroscopic (whole cell configuration) or microscopic (e.g. inside out configuration) ionic currents through the plasma membrane. For assay of the effect of the molecules on the SKCa/IKCa channels, two complementary techniques were used: conventional, manual patch clamp and automated patch clamp with the Nanion NPC-16 Patchliner Quattro (4 channels) (Potier et al., Mol Cancer Ther 2006, 5, 2946-53; Chantome et al., Exp Cell Res 2009, 315, 3620-30; Potier et al., Biochem Biophys Res Commun 2010, 397, 42-7; Girault et al., Current Cancer Drug Targets, 2011, 11, 1111-25; Sevrain et al., Med. Chem. Commun., 2012, 3, 1471-1478; Sevrain et al., Organic & Biomolecular Chemistry, 2013 Jul. 21; 11(27):4479-87; Chantome et al., Cancer Research, 2013 Aug. 1; 73(15):4852-61, Gueguinou M, Crottès D, Chantôme A, Rapetti-Mauss R, Potier-Cartereau M, Clarysse L, Girault A, Fourbon Y, Jézéquel P, Guérin-Charbonnel C, Fromont G, Martin P, Pellissier B, Schiappa R, Chamorey E, Mignen O, Uguen A, Borgese F, Vandier C, Soriani O. Oncogene. 2017 Jan. 23. doi: 10.1038/onc.2016.501, Berthe W, Sevrain C M, Chantôme A, Bouchet A M, Gueguinou M, Fourbon Y, Potier-Cartereau M, Haelters J P, Couthon-Gourvès H, Vandier C, Jaffrès P A. ChemMedChem. 2016 Jul. 19; 11(14):1531-9, Guéguinou M, Harnois T, Crottes D, Uguen A, Deliot N, Gambade A, Chantôme A, Haelters J P, Jaffrès P A, Jourdan M L, Weber G, Soriani O, Bougnoux P, Mignen O, Bourmeyster N, Constantin B, Lecomte T, Vandier C, Potier-Cartereau M. Oncotarget. 2016 Jun. 14; 7(24):36168-36184. doi: 10.18632/oncotarget.8786).
For conventional patch clamp, the micropipette is filled with an intrapipette medium—IPM (see composition below) and allows measurement of ionic currents at the same time as allowing maintaining of membrane potential (voltage clamp). The experimental device was composed of an anti-vibration table supporting an inverted microscope (Nikon, Eclipse TE 300). The Petri dish (Corning Incorporated, USA), containing the cells was placed on a plexiglass plate attached to the microscope stage. The pipette was connected to the amplifier (Axopatch 200B) as reference electrode which allowed closing of the electrical circuit. […]
For orientation: In patch-clamp work, channel activity is measured electrically.

Data set [2] addresses T2, SK2 channel (Rattus norvegicus, UniProt P70604).
T2 construct: expressed in transfected cells
The data set is described as follows: Automated patch clamp (Nanion NPC-16 Patchliner Quattro) on HEK-rSK2 cells, SK2 channel activity. It counts as cell-based.
Excerpt: as §1, §2, §3
The technique of choice to determine molecules inhibiting the activity of ion channels is the patch-clamp technique. However, this technique which is manual is time-consuming and only gives low yields. Automation of patch-clamp brought a revolution in the study and screening of ion channels and has allowed the envisaging of assays with much faster flow rate and much higher yield. There exist several automatic patch clamp devices based on the use of chips. […]

For data set [3], the system named is MDA-MB-435s-Luc cells expressing the SK3 channel. The data set is described as follows: In vivo mouse model of orthotopic xenograft: primary tumour and metastases. Also noted: species or system female NMRI nude mice. As to conditions: 1 mg/kg intraperitoneal, three times per week. From the text:
In Vivo Mouse Model of Orthotopic Xenograft: Assay on Capacity of the Molecules to Reduce Tumour Development
This model allowed study on a metastatic cancer with development of the primary tumour and formation of metastases in parallel with primary tumour development. For this assay, female NMRI nude mice aged four weeks were used. To prepare the graft, the terminal end bud of the mice was cauterised with an electrical scalpel and 2 million cells expressing the SK3 channel and luciferase (MDA-MB-435s-Luc) implanted therein. Luciferase allows in vivo monitoring of tumour development via optical imaging (Girault et al., Current Cancer Drug Targets, 2011, 11, 1111-25; Chantome et al., Cancer Research, 2013 Aug. 1; 73(15):4852-61).
Two groups of mice were formed and compound 20 was prepared in a DMSO/PEG300/Water mixture (5:45:50) at 10 ml/kg: • Group 20 1: group treated via intraperitoneal injection of compound 20 at 1 mg/kg, three times per week for […]; and • Control group: group given injections with equivalent vehicle dilution […], three times per week for 15 weeks.
Development of the primary tumour was monitored in two manners: size measurement with a calliper rule (length×width×thickness) and measurement of bioluminescence with a bio-imaging device.
If the primary tumour reached a size of 900 mm^3, it was fully excised to best approach a clinical situation and exclude this variable which could impact the development of metastases. The experiment was continued with injections of compound 20 and monitoring of the development of metastases via BLI with front and back imaging of the mice.
The weight of the mice, bioluminescence and tumour size measurements were carried out every week to monitor tumour changes and metastases. For imaging, the mice were anaesthetised with isoflurane.
After about 15 weeks, the mice were sacrificed. Luciferin was injected before sacrifice to allow whole-animal imaging and imaging of each organ examined (bone, liver, lymph node, brain, colon).

In general, inhibition refers to the percentage by which the read-out fell short of the control. Low values mean a weak effect, high ones a strong effect.

In the case of `c1ccc2c(c1)CCC[C@@H]2Nc1ncnc2cccnc12` [Compound 20, (S)—N-(1,2,3,4-Tetrahydronaphthalen-1-yl)pyrido[3,2-d]pyrimidin-4-amine], the inhibition at 0.01 µM in data set [1] (10 nM) was 45.5%. In addition, the figures for the inhibition at 10 µM in data set [1] (10 μM) and in data set [2] (10 μM) were 92.8% and 91.8%, respectively. The same compound displayed an inhibition at 0.1 µM in data set [2] (100 nM) of 91.2%. The “toxicity in xenografted mice” value in data set [3] is “apparent non-toxicity”. Moreover, the “weight of the mice versus control group” value in data set [3] (at 10 weeks, xenografted mice) is “no significant difference in weight between the two groups”. In addition, in data set [3] (at the time of primary tumour excision), the “primary tumour volume versus control group” value is reported as “Tumour volume did not differ between groups”. Besides, the lung metastases entry in data set [3] (ex vivo after 15 weeks) is listed as “developed lung metastases”. Also, the bone metastases entry in data set [3] (ex vivo after 15 weeks, FIG. 1) is on record as “reduced the number of bone metastases”. For the same compound, in data set [3] (ex vivo after 15 weeks, FIG. 2), the “ovarian and uterine metastases” value is “fully stopped the development of ovarian and uterine metastases”.
